Structures are written as SMILES.

This data set in a line: Accumulation rate in popliteal lymph nodes after subcutaneous plantar administration. The note with it: 24 hours after subcutaneous plantar administration, 13 nmol dye. In kind it is in vivo, mouse. The method, then: PNP10 prepared in EXAMPLE 10 was administered subcutaneously into the plantar surface of a mouse. Extirpation was performed 24 hours after administration. After homogenization, extraction was performed with an organic solvent to measure the accumulation rate in the popliteal lymph nodes. The amount administered was 13 nmol in terms of the amount of the dye. As a comparative example, an aqueous solution of ICG was also administered, and the accumulation rate was measured. The accumulation rate of PNP10 in the lymph nodes was about 80 times higher than that of ICG.

For `CC1(C)C(/C=C/C=C/C=C/C=C2\N(CCCCS(=O)(=O)O)c3ccc4ccccc4c3C2(C)C)=[N+](CCCCS(=O)(=O)[O-])c2ccc3ccccc3c21` [ICG, Indocyanine green], the “Accumulation rate in lymph node (% ID)” value is on record as 0.1 % ID.
